{"source": "patent US20120214818A1", "about": "“METHODS OF TREATING DIASTOLIC DYSFUNCTION AND RELATED CONDITIONS” (THE BOARD OF TRUSTEES OF THE UNIVERSITY OF ILLINOIS, priority 2009, published 2012)", "key": {"DOCA-salt mice": {"tested_on": "DOCA-salt mice", "experiment": "Myofilament calcium sensitivity of fibers from mice chronically treated with ranolazine", "format": "in vivo, mouse", "conditions": "fibers from hearts of DOCA-salt mice chronically treated with ranolazine vs. DOCA-salt mice", "procedure": "A special diet contained 5 mg ranolazine, 0.3 mg P450 inhibitor, and 0.25 mg red food color was pressed into a 1-g nutritionally complete grain-based tablet (Harlan, Madison, Wis.). The control diet contained 0.3 mg P450 inhibitor and 0.25 mg yellow food color pressed into the same type of 1-g tablets. DOCA-salt and sham mice consumed daily ˜1 g of the special diet from postoperative day 11 to 18. […] We also determined Ktr, which is a measure of the rate of re-entry of cross-bridges into force generating states."}, "DOCA-salt and sham mice": {"tested_on": "DOCA-salt and sham mice", "experiment": "Noninvasive echocardiographic assessment of diastolic dysfunction, acute ranolazine", "format": "in vivo, mouse", "conditions": "30 mg/kg ranolazine intraperitoneal; for E/A, early to late diastolic filling velocity / E/E′ / E′, early septal mitral annulus velocity (TDI) / E′/A′ / Sm, systolic septal mitral annulus velocity (TDI): 30 min; for EF, ejection fraction (Table 3) / FS, fractional shortening: echocardiogram 30 min later", "procedure": "Generation of DOCA-salt mouse model: Previously, it was shown that this model leads to mild hypertension, myocardial oxidative stress, and diastolic dysfunction.^20 A gradual and mild elevation in blood pressure was induced by unilateral nephrectomy, subcutaneous implantation of a controlled release deoxycorticosterone acetate (DOCA) pellet (0.7 mg/d; Innovative Research of America, Sarasota, Fla.), and substituting drinking water with 1.05% saline. Control animals underwent a sham operation, had placebo pellet implantation, and received water without salt. Noninvasive assessment of diastolic dysfunction: Mice were anesthetized, maintained at 37° C., and studied by echocardiography (Vevo 770, VisualSonics Inc, Toronto, Canada). M-mode images in the parasternal long axis and the left ventricle (LV) short-axis views at the mid-papillary level. Measurements were averaged from three consecutive beats during expiration. LV inflow velocities (E and A waves) were interrogated by conventional pulsed-wave Doppler from the apical four-chamber view. The mitral annulus longitudinal velocities (Sm, E′, and A′) were determined by pulsed-wave tissue Doppler from the apical four-chamber view. Interpretation was done by two investigators blinded to the treatment groups. First, baseline images were acquired. Subsequently, the mice were injected with 30 mg/kg ranolazine by intraperitoneal route, followed by a second echocardiogram 30 min later. Previously, we have shown that this model leads to mild hypertension, myocardial oxidative stress, and diastolic dysfunction.^20 A gradual and mild elevation in blood pressure was induced by unilateral nephrectomy, subcutaneous implantation of a controlled release deoxycorticosterone acetate (DOCA) pellet (0.7 mg/d; Innovative Research of America, Sarasota, Fla.), and substituting drinking water with 1.05% saline. Control animals underwent a sham operation, had placebo pellet implantation, and received water without salt. Mice were anesthetized, maintained at 37° C., and studied by echocardiography (Vevo 770, VisualSonics Inc, Toronto, Canada). M-mode images in the parasternal long axis and the left ventricle (LV) short-axis views at the mid-papillary level were taken. Measurements were averaged from three consecutive beats during expiration. LV inflow velocities (E and A waves) were interrogated by conventional pulsed-wave Doppler from the apical four-chamber view. The mitral annulus longitudinal velocities (Sm, E′, and A′) were determined by pulsed-wave tissue Doppler from the apical four-chamber view. Interpretation was done by a two investigators blinded to the treatment groups. First, baseline images were acquired. Subsequently to determine the acute effect, the mice were injected with 30 mg/kg ranolazine by intraperitoneal route, followed by a second echocardiogram 30 min later."}}}
{"smiles": "COc1ccccc1OCC(O)CN1CCN(CC(=O)Nc2c(C)cccc2C)CC1", "note": "(stereo not drawn) [ranolazine]", "values": [{"measurement": "maximal tension in response to Ca2+", "setting": "DOCA-salt mice", "value": "significantly reduces maximal tension"}, {"measurement": "E/A, early to late diastolic filling velocity", "setting": "DOCA-salt and sham mice; DOCA-salt mice", "value": "1.62 ± 0.11"}, {"measurement": "E/E′", "setting": "DOCA-salt and sham mice; DOCA-salt mice", "value": "31.9 ± 2.6"}, {"measurement": "E′, early septal mitral annulus velocity (TDI)", "setting": "DOCA-salt and sham mice; DOCA-salt mice", "value": "2.47 ± 0.18", "unit": "cm/s"}, {"measurement": "E′/A′", "setting": "DOCA-salt and sham mice; DOCA-salt mice", "value": "1.31 ± 0.11"}, {"measurement": "Sm, systolic septal mitral annulus velocity (TDI)", "setting": "DOCA-salt and sham mice; DOCA-salt mice", "value": "2.15 ± 0.14", "unit": "cm/s"}, {"measurement": "EF, ejection fraction (Table 3)", "setting": "DOCA-salt and sham mice; DOCA-salt mice", "value": "46.9 ± 1.6", "unit": "%"}, {"measurement": "FS, fractional shortening", "setting": "DOCA-salt and sham mice; DOCA-salt mice", "value": "46.9 ± 1.6", "unit": "%"}, {"measurement": "E/A, early to late diastolic filling velocity", "setting": "DOCA-salt and sham mice; sham mice", "value": "1.63 ± 0.07"}, {"measurement": "E/E′", "setting": "DOCA-salt and sham mice; sham mice", "value": "30.2 ± 1.9"}, {"measurement": "E′, early septal mitral annulus velocity (TDI)", "setting": "DOCA-salt and sham mice; sham mice", "value": "2.67 ± 0.11", "unit": "cm/s"}, {"measurement": "E′/A′", "setting": "DOCA-salt and sham mice; sham mice", "value": "1.16 ± 0.02"}, {"measurement": "Sm, systolic septal mitral annulus velocity (TDI)", "setting": "DOCA-salt and sham mice; sham mice", "value": "2.31 ± 0.09", "unit": "cm/s"}, {"measurement": "EF, ejection fraction (Table 3)", "setting": "DOCA-salt and sham mice; sham mice", "value": "52.8 ± 0.8", "unit": "%"}, {"measurement": "FS, fractional shortening", "setting": "DOCA-salt and sham mice; sham mice", "value": "52.8 ± 0.8", "unit": "%"}]}
